Assay results: publication PMC12333940, “A prometabolite strategy inhibits cardiometabolic disease in an ApoE^–/– murine model of atherosclerosis” (JCI Insight, 2025)
Values joined by “and” are separate entries in the source; they are usually repeats but may differ in a detail not shown here. Equal entries are not always repeated.

Tests used:
[1] = test system: ApoE^–/– mice on an HFD; test: Flow cytometry of the aorta; assay type: in vivo, mouse; set-up: Aorta Flow CD11b+F480+ / Aorta Flow CD11b+Ly6Chi: unit not given here; conditions: for CD45^+ total leukocytes, CD11b^+ monocytes and CCR2^+CD11b^+ monocytes in the aorta: compared with control groups; for CD11c^+MHCII^hi dendritic cells, CD11b^+F480^+ macrophages and CD19^+ B cells in the aorta: compared with water controls; for Aorta Flow B cell Count / Aorta Flow CD11b+F480+ / Aorta Flow CD11b+Ly6Chi / Aorta Flow T Cell Count / Aorta Flow CD11b+ Count / Aorta Flow CD11b+CCR2+ / Aorta Flow CD45 Count / Aorta Flow CD11c+MHCIIhi: individual mice; for Aorta Flow CD11b+ Count / Aorta Flow CD11b+CCR2+ / Aorta Flow CD45 Count: experiment 2; for Aorta Flow CD11c+MHCIIhi: cell count
From the text: SerBut water was pH adjusted using 10 M NaOH to a final pH of 7.4. […] After 6 weeks, mice were euthanized. […] The liver was harvested and part was homogenized in tissue protein extraction reagent buffer (Invitrogen, 78510) supplemented with protease inhibitor mini tablets (Thermo Fisher Scientific, PIA32955) for Western blotting and qPCR. […] The heart with the ascending and descending aorta to the diaphragm was harvested. The perivascular adipose tissue was carefully removed by microdissection while keeping the adventitia intact. […] After 45 minutes of digestion at 37°C with orbital shaking, aortas were passed through a 70 μm cell strainer, rinsed, pelleted, and plated into a U-bottom 96-well microplate for staining. […] Cells were washed in PBS supplemented with 2% FBS (FACS buffer) and stained for 30 minutes on ice with surface antibodies at a 1:200 dilution in a 1:1 mixture of FACS buffer and Brilliant Stain Buffer (BD Biosciences). Cells were washed with FACS buffer and PBS and fixed with 2% paraformaldehyde on ice for 20 minutes. Cells were washed twice with PBS and resuspended in FACS buffer. Precision count beads (BioLegend) were used to determine absolute cell counts. In this study, antibodies used included those against CD16/CD32 (BioLegend, clone 93, catalog 101302), CCR2 (PE; […] BD Biosciences, clone HL3, catalog 558079, BD Biosciences), […] (APC; […] BD Biosciences, clone 30-F11, catalog 564225), F4/80 (BUV496; BD Biosciences, clone T45-2342, catalog 750644), […].5; BioLegend, clone M5/114.15.2, catalog 107626), Ly-6C (APC-Cy7; […]

[2] = test system: RAW 264.7 macrophages; test: Cell viability assay (MTS); assay type: cell-based; conditions: for Viability: 24 hours
Description: CellTiter 96 AQueous one Solution Cell Proliferation Assay (MTS) (Promega, G3582) was used according to the manufacturer’s instructions to analyze cytotoxicity of SerBut and NaBut at various concentrations (0.15–12 mM) in RAW 264.7 macrophages. Viability values were normalized to untreated cells (100%) and Triton X-100–treated cells (0%). Since absorbance is directly proportional to the number of living cells in culture, values greater than 100% indicate cell growth compared with controls.

[3] = test system: HDAC; set-up: method as in PMID 38561491; conditions: RAW 264.7 ref 28; cited from earlier work
[4] = Body weight during treatment; assay type: in vivo, ApoE^–/– mice; conditions: in g (unit assumed)
From the text: SerBut water was pH adjusted using 10 M NaOH to a final pH of 7.4. […] After 6 weeks, mice were euthanized. […] The liver was harvested and part was homogenized in tissue protein extraction reagent buffer (Invitrogen, 78510) supplemented with protease inhibitor mini tablets (Thermo Fisher Scientific, PIA32955) for Western blotting and qPCR.

[5] = test system: bone marrow–derived dendritic cells (BMDCs); set-up: method as in PMID 38561491, PMID 27897220; conditions: BMDCs ref 28, 40; cited from earlier work

SMILES	CD45^+ total leukocytes, CD11b^+ monocytes and CCR2^+CD11b^+ monocytes in the aorta ([1]; 6 weeks)	CD11c^+MHCII^hi dendritic cells, CD11b^+F480^+ macrophages and CD19^+ B cells in the aorta ([1]; 6 weeks)	Aorta Flow B cell Count [1]	Aorta Flow CD11b+F480+ [1]	Aorta Flow CD11b+Ly6Chi [1]	Aorta Flow T Cell Count [1]	Aorta Flow CD11b+ Count [1]	Aorta Flow CD11b+CCR2+ [1]	Aorta Flow CD45 Count [1]	Aorta Flow CD11c+MHCIIhi [1]	other results
CCCC(=O)[O-].[Na+] [NaBut, sodium butyrate, reference compound]	did not	significantly reduced	315.036 and 240.601 and 72.6582 and 149.307 and 158.07 and 295.152 and 181.142 and 268.448 and 139.825 and 307.858	25.0597 and 7.5188 and 3.353 and 10.7501 and 8.319 and 26.3753 and 5.998 and 6.129 and 4.994 and 11.9789	10.7965 and 20.8384 and 26.2172 and 17.9684 and 39.3795 and 20.0501 and 6.707 and 17.9169 and 5.942 and 82.8937	829.356 and 329.574 and 100.604 and 316.531 and 316.14 and 663.15 and 236.324 and 566.315 and 510.612 and 977.48	159.148 and 69.3047 and 197.085 and 244.83 and 668.174 and 122.361 and 438.833 and 237.203 and 489.938 and 511.933	22.5564 and 10.0604 and 29.8614 and 43.9743 and 133.132 and 27.5912 and 84.5795 and 57.4282 and 142.549 and 96.6587	1122.81 and 480.662 and 1340.18 and 1250.3 and 2283.35 and 857.726 and 1975.97 and 1910.11 and 5505.51 and 4110.98	16.2907 and 5.589 and 14.3335 and 20.2044 and 75.358 and 13.1958 and 30.6448 and 26.2172 and 32.3431 and 60.8592	cell viability ([2]; at 4 mM and above): significantly reduced cell viability
CCCC(=O)OC[C@H](N)C(=O)O [SerBut, O-butyryl-L-serine]	significantly reduced	significantly reduced	84.4967 and 264.868 and 232.342 and 96.7663 and 273.748 and 383.747 and 234.355 and 234.323 and 206.881	2.449 and 2.499 and 9.294 and 20.8231 and 9.359 and 5.0163 and 5.067 and 13.3899 and 12.3679	17.5571 and 39.2703 and 12.2741 and 5.622 and 12.2459 and 19.99 and 12.7788 and 6.124 and 10.5288	194.71 and 307.346 and 249.768 and 304.998 and 251.521 and 313.519 and 377.502 and 212.006 and 174.275	156.172 and 152.184 and 222.93 and 139.214 and 215.701 and 328.097 and 166.257 and 155.161 and 99.1918	32.4838 and 20.9108 and 28.1725 and 25.737 and 41.3845 and 93.7421 and 32.3588 and 29.2332 and 22.0426	1030.73 and 928.206 and 1219.99 and 1078.62 and 1098.57 and 1777.3 and 1018.75 and 756.69 and 848.641	16.2419 and 24.3959 and 22.048 and 17.548 and 21.3193 and 22.8021 and 17.8532 and 22.4871 and 13.4705	HDAC inhibition activity [3]: maintained attenuated HDAC inhibition activity; Weight ([4]; week 0, 150 mM in drinking water with HFD, individual mice): 18.7 and 18.3 and 20 and 18.8 and 17 and 19.2 and 18.6 and 18.9 and 20.5 and 19.6; Weight ([4]; week 2): 20.9 and 20.5 and 20.2 and 18.7 and 20 and 20.6 and 20.3 and 21.2; Weight ([4]; week 2.5): 21.2 and 20.6 and 21.6 and 19.8 and 21.4 and 21.5 and 20.7 and 21.9; Weight ([4]; week 5): 24 and 22.2 and 21.8 and 20.2 and 21.1 and 22.4 and 21.4 and 22.7; Weight ([4]; week 6): 23.8 and 21.9 and 22.9 and 19.2 and 21.6 and 22.7 and 21.4 and 23.1; CD11b^+Ly6C^hi monocytes and CD4^+ T cells in the aorta ([1]; 6 weeks, compared to water-treated controls): significantly reduced; inflammatory marker expression [5]: suppressed inflammatory marker expression; Viability ([2]; 0.15 mM, normalized to untreated (100%) and Triton X-100 (0%)): 125.153% and 106.544% and 100.92%; Viability ([2]; 0.44 mM): 107.157% and 122.597% and 96.9325%; Viability ([2]; 1.33 mM): 115.337% and 91.7178% and 91.1043%; Viability ([2]; 4 mM): 117.28% and 100.204% and 101.431%; Viability ([2]; 12 mM): 121.575% and 99.0798% and 102.249%; cytotoxicity ([2]; even at 12 mM): no cytotoxicity
